Patent US11572399B2, “Long-acting GIP peptide analogues” (University of Copenhagen, priority 2017, dated 2023)
Peptide text beside a SMILES is read from it. * marks the point of attachment. C16 diacid = O=C(O)CCCCCCCCCCCCCCC(=O)*; Palmitoyl = CCCCCCCCCCCCCCCC(=O)*

Tests used:
[1] = target: T1, human GIP receptor (Homo sapiens, UniProt P48546); experiment: 125I-human GIP competition binding assay, in the presence and absence of 2% HSA; settings: for Binding fold (paired): fold decrease in affinity compared to GIP(3-30)NH2; for Fold change in affinity, IC50 (plus HSA)/IC50 (minus HSA): presence vs absence of 2% HSA, proxy for albumin binding; for Fold change HSA (2%)/Casein (0.1%): IC50 (plus HSA)/IC50 (minus HSA); for Binding (+/−HSA) Fold: fold change +HSA/−HSA;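 as to all read-outs here: nonspecific binding taken as radioligand bound to untransfected cells, IC50 obtained from nonlinear regression fits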
T1 construct: host or cells: COS-7, transient transfection (calcium phosphate), cDNA in pCMV-Script
T1 sequence (P48546 22-466): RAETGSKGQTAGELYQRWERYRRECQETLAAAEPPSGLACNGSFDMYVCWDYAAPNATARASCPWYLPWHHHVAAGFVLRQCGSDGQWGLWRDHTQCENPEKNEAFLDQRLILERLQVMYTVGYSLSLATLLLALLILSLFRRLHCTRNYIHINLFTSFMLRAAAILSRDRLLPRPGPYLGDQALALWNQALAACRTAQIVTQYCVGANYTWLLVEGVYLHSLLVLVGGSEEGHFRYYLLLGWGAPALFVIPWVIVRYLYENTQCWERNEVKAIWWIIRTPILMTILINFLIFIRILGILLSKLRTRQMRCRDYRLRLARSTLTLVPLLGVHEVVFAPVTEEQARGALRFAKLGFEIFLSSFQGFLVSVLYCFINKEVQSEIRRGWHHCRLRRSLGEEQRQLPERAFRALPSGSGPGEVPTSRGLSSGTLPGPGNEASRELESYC
Description: Transient transfection of the COS-7 cells for cAMP accumulation and competition binding was performed using the calcium phosphate precipitation method with the addition of chloroquine^46-47.
Transient transfected COS-7 cells expressing the human GIP receptor were seeded in clear 96-well plates the day after transfection using a number of cells/well that obtained 5-10% specific binding of the added radioactive ligand. The following day, cells were assayed by competition binding for 3 h at 4° C. using 15-40 pM 125 I-human GIP as well as increasing concentrations unlabeled ligand in 50 mM Hepes buffer (pH 7.2) in the presence and absence of 2% HSA. After incubation, the cells were washed twice in ice-cold binding buffer (+/−2% HSA) and lysed using 200 mM NaOH with 1% SDS for 30 min. Nonspecific binding was determined as the binding of radioactive ligand to untransfected cells.
IC50, EC50, and Ki values were determined by nonlinear regression. […] Ki values were based on the formula for one class of binding sites in homologous competition binding studies and the Cheng Prussoffs formula, respectively (DeBlasi et al., 1989). To determine the HSA binding potential, the fold change in affinity (as determined by IC50) was calculated as IC50 (plus HSA)/IC50 (minus HSA).

[2] = Elimination half-life (T1/2) estimated in pigs, subcutaneous, RIA; type: in vivo; settings: pig
Description: LYH/LYD strain pigs or mini-pigs were housed in the animal facility at the Faculty of Health and Medical Sciences.
A pig was subcutaneously administered one of the lipidated GIP(3-30)NH2 analogs (compound AT117) (1-10 nmol/kg, total volume 2-6 mL) after which 10-18 blood samples were collected before and up to 57 hours post subcutaneous administration) from a central venous catheter. The catheter was flushed with saline and heparin between samples. Blood was collected into cold EDTA tubes, centrifuged and plasma was kept at −20° C. pending analyses. When experiments are completed, the animals will be killed.
Concentrations of the lipidated GIP(3-30)NH2 or GIP(5-30)NH2 analogues in blood samples from pigs were analysed by RIA. Analogues' immunoreactivity was determined using antiserum Ab95234, Ab95235, Ab95236, a polyclonal in-house antibody raised in rabbits specific for either the mid region of GIP(1-30)NH2 or amidated C-terminus of GIP(3-30)NH2.

[3] = target: T1, human GIP receptor; experiment: cAMP accumulation assay, agonism (ligand alone); type: cell-based; settings: Table 1; for Emax: COS-7, intrinsic cAMP activity, COS-7 cells
[4] = target: T1, human GIP receptor; experiment: cAMP accumulation assay, antagonism of a GIP-mediated cAMP response (50-80% of max); type: cell-based; settings: for cAMP - antagonisme fold (paired): fold vs GIP(3-30)NH2, Table 3b; for Fold change of IC50 versus GIP(5-30)NH2: fold change of IC50 from GIP(5-30)NH2
Description: The day after, the cells were washed twice with Hepes buffered saline (HBS) buffer and incubated with HBS and 1 mM 3-isobutyl-1-methylxanthine (IBMX) for 30 min at 37° C. […] The HitHunter™ cAMP XS assay (DiscoveRx) was carried out according to the manufacturer's instructions.

[5] = 0.1% casein, no HSA, Table 3b, read-out: Binding logIC50 0.1% casein (converted)
[6] = 2% HSA, Table 3b, read-out: Binding logIC50 2% HSA (converted)
[7] = Table 3b, initial data, read-out: Binding IC50
[8] = binding in presence of 2% HSA, read-out: logIC50 2% HSA (converted)
[9] = heterologous competition binding, transiently transfected COS-7 cells expressing the human GIP receptor, read-out: Binding
[10] = transiently transfected COS-7 cells, Table 1 and text, read-out: cAMP antagonism nM (IC50, antagonistic potency)
[11] = binding in 0.1% casein (absence of HSA), log value, read-out: logIC50 0.1% casein (converted)

CCCCCCCCCCCCCCCC(=O)NCCCC[C@H](NC(=O)[C@@H](NC(=O)[C@H](CCCCN)NC(=O)[C@H](CC(=O)O)NC(=O)[C@H](CCSC)NC(=O)[C@H](C)NC(=O)[C@@H](NC(=O)[C@H](CO)NC(=O)[C@H](Cc1ccc(O)cc1)NC(=O)[C@H](CC(=O)O)NC(=O)[C@H](CO)NC(=O)[C@@H](NC(=O)[C@H](Cc1ccccc1)NC(=O)[C@@H](NC(=O)CNC(=O)[C@@H](N)CCC(=O)O)[C@@H](C)O)[C@@H](C)CC)[C@@H](C)CC)[C@@H](C)CC)C(=O)N[C@@H](CCC(N)=O)C(=O)N[C@@H](CCC(N)=O)C(=O)N[C@@H](CC(=O)O)C(=O)N[C@@H](Cc1ccccc1)C(=O)N[C@H](C(=O)N[C@@H](CC(N)=O)C(=O)N[C@@H](Cc1c[nH]c2ccccc12)C(=O)N[C@@H](CC(C)C)C(=O)N[C@@H](CC(C)C)C(=O)N[C@@H](C)C(=O)N[C@@H](CCC(N)=O)C(=O)N[C@@H](CCCCN)C(N)=O)C(C)C [AT117, [hGIP(3-30)NH2[H18K]-C16/18]] (H-EGTFISDYSIAMDKIK(Palmitoyl)QQDFVNWLLAQK-NH2; N-terminus assumed)
IC50 [1, 5]: 110 nM | IC50 [1, 6]: 1730 nM | IC50 [1, 7]: 292 nM | IC50 [1, 8]: 1730 nM | Binding fold (paired) ([1]; Table 3b): 12 fold | IC50 [1, 9]: 292 nM | Fold change in affinity, IC50 (plus HSA)/IC50 (minus HSA) [1]: 15.7 fold | half-life ([2]; plasma, sc, pigs, subcutaneous 1-10 nmol/kg): 8 h | T½ ([2]; subcutaneous): 8 h | Emax [3]: 0% | cAMP - antagonisme fold (paired) [4]: 2.3 fold | IC50 [4, 10]: 15 nM

CC[C@H](C)[C@H](NC(=O)[C@H](CCCCNC(=O)CCCCCCCCCCCCCCC(=O)O)NC(=O)[C@H](Cc1ccc(O)cc1)NC(=O)[C@H](CC(=O)O)NC(=O)[C@H](CO)NC(=O)[C@@H](NC(=O)[C@H](Cc1ccccc1)NC(=O)[C@@H](N)[C@@H](C)O)[C@@H](C)CC)C(=O)N[C@@H](C)C(=O)N[C@@H](CCSC)C(=O)N[C@@H](CC(=O)O)C(=O)N[C@@H](CCCCN)C(=O)N[C@H](C(=O)N[C@@H](Cc1c[nH]cn1)C(=O)N[C@@H](CCC(N)=O)C(=O)N[C@@H](CCC(N)=O)C(=O)N[C@@H](CC(=O)O)C(=O)N[C@@H](Cc1ccccc1)C(=O)N[C@H](C(=O)N[C@@H](CC(N)=O)C(=O)N[C@@H](Cc1c[nH]c2ccccc12)C(=O)N[C@@H](CC(C)C)C(=O)N[C@@H](CC(C)C)C(=O)N[C@@H](C)C(=O)N[C@@H](CCC(N)=O)C(=O)N[C@@H](CCCCN)C(N)=O)C(C)C)[C@@H](C)CC [AT173, [hGIP(5-30)NH2[S11K]-C16diacid/11]] (H-TFISDYK(C16 diacid)IAMDKIHQQDFVNWLLAQK-NH2; N-terminus assumed)
Fold change HSA (2%)/Casein (0.1%) [1]: 7.4 | Ki ([1]; absence of HSA): 6 nM | IC50 [1, 11]: 7.94 nM | Binding (+/−HSA) Fold [1]: 9.7 | IC50 [1, 9]: 8 nM | Fold change in affinity, IC50 (plus HSA)/IC50 (minus HSA) [1]: 7.4 fold | Emax [3]: 0% | Ability to antagonize the GIP-mediated cAMP response (in words) [4]: highest antagonistic potencies | Fold change of IC50 versus GIP(5-30)NH2 [4]: 0.3 | IC50 [4, 10]: 10 nM

CC[C@H](C)[C@H](NC(=O)[C@H](CO)NC(=O)[C@H](Cc1ccc(O)cc1)NC(=O)[C@H](CC(=O)O)NC(=O)[C@H](CO)NC(=O)[C@@H](NC(=O)[C@H](Cc1ccccc1)NC(=O)[C@@H](N)[C@@H](C)O)[C@@H](C)CC)C(=O)N[C@@H](C)C(=O)N[C@@H](CCSC)C(=O)N[C@@H](CC(=O)O)C(=O)N[C@@H](CCCCN)C(=O)N[C@H](C(=O)N[C@@H](Cc1c[nH]cn1)C(=O)N[C@@H](CCC(N)=O)C(=O)N[C@@H](CCC(N)=O)C(=O)N[C@@H](CC(=O)O)C(=O)N[C@@H](Cc1ccccc1)C(=O)N[C@@H](CCCCNC(=O)CCCCCCCCCCCCCCC(=O)O)C(=O)N[C@@H](CC(N)=O)C(=O)N[C@@H](Cc1c[nH]c2ccccc12)C(=O)N[C@@H](CC(C)C)C(=O)N[C@@H](CC(C)C)C(=O)N[C@@H](C)C(=O)N[C@@H](CCC(N)=O)C(=O)N[C@@H](CCCCN)C(N)=O)[C@@H](C)CC [AT183, [hGIP(5-30)NH2[V23K]-C16diacid/23]] (H-TFISDYSIAMDKIHQQDFK(C16 diacid)NWLLAQK-NH2; N-terminus assumed)
Fold change HSA (2%)/Casein (0.1%) [1]: 1.8 | Binding (+/−HSA) Fold [1]: 4.4 | Emax [3]: 0% | Fold change of IC50 versus GIP(5-30)NH2 [4]: 55.0

CCCCCCCCCCCCCCCC(=O)NCCCC[C@H](NC(=O)[C@@H](NC(=O)[C@H](CCCCN)NC(=O)[C@H](CC(=O)O)NC(=O)[C@H](CC(C)C)NC(=O)[C@H](C)NC(=O)[C@@H](NC(=O)[C@H](CO)NC(=O)[C@H](Cc1ccc(O)cc1)NC(=O)[C@H](CC(=O)O)NC(=O)[C@H](CO)NC(=O)[C@@H](NC(=O)[C@H](Cc1ccccc1)NC(=O)[C@@H](NC(=O)CNC(=O)[C@@H](N)CCC(=O)O)[C@@H](C)O)[C@@H](C)CC)[C@@H](C)CC)[C@@H](C)CC)C(=O)N[C@@H](CCC(N)=O)C(=O)N[C@@H](CCC(N)=O)C(=O)N[C@@H](CC(=O)O)C(=O)N[C@@H](Cc1ccccc1)C(=O)N[C@H](C(=O)N[C@@H](CC(N)=O)C(=O)N[C@@H](Cc1c[nH]c2ccccc12)C(=O)N[C@@H](CC(C)C)C(=O)N[C@@H](CC(C)C)C(=O)N[C@@H](C)C(=O)N[C@@H](CCC(N)=O)C(=O)N[C@@H](CCCCN)C(N)=O)C(C)C [AT143, [hGIP(3-30)NH2[M14L; H18K]-C16/18]] (H-EGTFISDYSIALDKIK(Palmitoyl)QQDFVNWLLAQK-NH2; N-terminus assumed)
IC50 [1, 5]: 86.1 nM | IC50 [1, 6]: 105 nM | IC50 [1, 7]: 86.1 nM | Binding fold (paired) ([1]; Table 3b): 11 fold | IC50 [1, 9]: 80 nM | Fold change in affinity, IC50 (plus HSA)/IC50 (minus HSA) [1]: 1.2 fold | Emax [3]: 40% | cAMP - antagonisme fold (paired) [4]: 0.3 fold | IC50 [4, 10]: 15 nM

CC[C@H](C)[C@H](NC(=O)[C@H](CO)NC(=O)[C@H](Cc1ccc(O)cc1)NC(=O)[C@H](CC(=O)O)NC(=O)[C@H](CO)NC(=O)[C@@H](NC(=O)[C@H](Cc1ccccc1)NC(=O)[C@@H](N)[C@@H](C)O)[C@@H](C)CC)C(=O)N[C@@H](C)C(=O)N[C@@H](CCCCNC(=O)CCCCCCCCCCCCCCC(=O)O)C(=O)N[C@@H](CC(=O)O)C(=O)N[C@@H](CCCCN)C(=O)N[C@H](C(=O)N[C@@H](Cc1c[nH]cn1)C(=O)N[C@@H](CCC(N)=O)C(=O)N[C@@H](CCC(N)=O)C(=O)N[C@@H](CC(=O)O)C(=O)N[C@@H](Cc1ccccc1)C(=O)N[C@H](C(=O)N[C@@H](CC(N)=O)C(=O)N[C@@H](Cc1c[nH]c2ccccc12)C(=O)N[C@@H](CC(C)C)C(=O)N[C@@H](CC(C)C)C(=O)N[C@@H](C)C(=O)N[C@@H](CCC(N)=O)C(=O)N[C@@H](CCCCN)C(N)=O)C(C)C)[C@@H](C)CC [AT176, [hGIP(5-30)NH2[M14K]-C16diacid/14]] (H-TFISDYSIAK(C16 diacid)DKIHQQDFVNWLLAQK-NH2; N-terminus assumed)
Fold change HSA (2%)/Casein (0.1%) [1]: 4.9 | IC50 [1, 11]: 126 nM | IC50 [1, 8]: 562 nM | Binding (+/−HSA) Fold [1]: 5.1 | IC50 [1, 9]: 114 nM | Emax [3]: 12% | EC50 ([3]; given as log EC50 (negative sign), read-out: cAMP agonism EC50 (log) (converted)): 100 nM | IC50 ([4]; antagonism of GIP-mediated cAMP response, COS-7 cells, read-out: cAMP accumulation IC50): 105 nM | Fold change of IC50 versus GIP(5-30)NH2 [4]: 3.8 | IC50 [4, 10]: 121 nM
